Drawing on PubChem BioAssay (NCI), this text covers TGI for 15 compounds.

Test systems include HCT-116 colon; OVCAR-5 ovarian; SNB-75 CNS; 786-0 renal; COLO 205 colon; HOP-92 NSCLC; PC-3 prostate; SW-620 colon; SF-295 CNS; SR leukemia.
What all share (experiment): NCI anticancer screen, dose series, 48 h

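Dose response: 5 concentrations. Exposure: 48 h. Format: 96-well plates. Endpoint: linear interpolation; highest concentration if not reached. Definition used: TGI = concentration required for complete inhibition of growth.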

For `C[C@H](CCC(=O)O)[C@H]1CC[C@H]2[C@@H]3[C@H](O)[C@H](O)[C@@H]4C[C@H](O)CC[C@]4(C)[C@H]3CC[C@]12C`, the TGI with HCT-116 colon, in the experiment on OVCAR-5 ovarian, with SNB-75 CNS, in the experiment on 786-0 renal, with COLO 205 colon and in the experiment with HOP-92 NSCLC was over 100 µM each time. For the same compound, the TGI in the experiment on PC-3 prostate and with SW-620 colon was over 100 µM in each case.
`CC(=O)/C(=C/N1CC(=O)NC1=S)C(=O)Nc1ccccc1C`: the TGI in the experiment with HCT-116 colon, with OVCAR-5 ovarian, in the experiment on SNB-75 CNS, with SF-295 CNS, in the experiment on 786-0 renal and in the experiment with COLO 205 colon was over 100 µM in each case. Further, the TGI in the experiment with HOP-92 NSCLC and with SW-620 colon was over 100 µM throughout.
`C[n+]1c2ccccc2n2c3ccccc3c(NCc3ccco3)c(C#N)c21`: the TGI in the experiment with HCT-116 colon was 14.7 µM; in the experiment on OVCAR-5 ovarian, 12 µM; with SNB-75 CNS, 6.86 µM; in the experiment with SF-295 CNS, 16.6 µM; in the experiment with 786-0 renal it was 12.8 µM; in the experiment on COLO 205 colon it was 19.9 µM. Further, the TGI in the experiment with PC-3 prostate was determined as 22.7 µM; in the experiment with SW-620 colon it was 4.01 µM.
As to `Cc1ccc(F)c2[nH]c(-c3ccccc3)cc(=O)c12`, the TGI is over 100 µM with SR leukemia; over 100 µM in the experiment on HCT-116 colon; over 31.3 µM with OVCAR-5 ovarian; over 30.6 µM in the experiment with SNB-75 CNS; 43.5 µM in the experiment with SF-295 CNS; over 43.4 µM with 786-0 renal. The TGI was 24.9 µM in the experiment with COLO 205 colon, over 100 µM with PC-3 prostate and over 100 µM in the experiment with SW-620 colon.
Turning to `Nc1nncc2n[nH]nc12`, the TGI in the experiment on SR leukemia, in the experiment on HCT-116 colon, in the experiment with OVCAR-5 ovarian, with SNB-75 CNS, with SF-295 CNS and with 786-0 renal was over 100 µM each time. Besides, the TGI with COLO 205 colon, in the experiment with PC-3 prostate and with SW-620 colon was over 100 µM in each case.
Regarding `N=C1c2ccccc2C(=O)c2c(NCCNCCO)ccc(O)c21`, the TGI was 5.32 µM in the experiment on SR leukemia; 15 µM in the experiment with HCT-116 colon; 84.7 µM with OVCAR-5 ovarian; 49.3 µM with SNB-75 CNS; over 40.5 µM with SF-295 CNS; over 38.7 µM in the experiment on 786-0 renal. Also, the figures for the TGI in the experiment on COLO 205 colon, in the experiment on HOP-92 NSCLC and in the experiment with SW-620 colon were 16.9 µM, over 71.2 µM and 15.8 µM, respectively.
Turning to `COP(=O)(/C=C/C(NC(=O)C(Cl)(Cl)Cl)c1ccccc1)OC` (stereo not drawn), the TGI with HCT-116 colon, with OVCAR-5 ovarian, in the experiment on SNB-75 CNS, in the experiment on SF-295 CNS, in the experiment with 786-0 renal and in the experiment on COLO 205 colon was over 100 µM each time. For the same compound, the TGI in the experiment on HOP-92 NSCLC, with PC-3 prostate and with SW-620 colon was over 100 µM each time.
For the compound `CCc1cc2c(cc1C(=O)CCC(=O)O)CC1(C2)Cc2cc(CC)c(C(=O)CCC(=O)O)cc2C1`, the TGI in the experiment with HCT-116 colon, in the experiment on OVCAR-5 ovarian, in the experiment on SNB-75 CNS, with SF-295 CNS, in the experiment on 786-0 renal and with COLO 205 colon was over 100 µM in each case. The TGI in the experiment on HOP-92 NSCLC, with PC-3 prostate and with SW-620 colon was over 100 µM each time.
On to `O=C1C=CC(=O)c2c(O)c(NCCN3CCOCC3)c(Cl)c(O)c21`, for which the TGI is 3.17 µM with HCT-116 colon; 3.27 µM with SNB-75 CNS; 3.41 µM in the experiment with SF-295 CNS; 5.47 µM with 786-0 renal; 3.01 µM in the experiment with COLO 205 colon; 6.39 µM in the experiment with HOP-92 NSCLC. The TGI worked out at 7.15 µM with PC-3 prostate and 2.91 µM in the experiment on SW-620 colon.
As to `COC(=O)CC(C(C(=O)OCc1ccccc1)C(C)O)N1C(=O)OCC1c1ccccc1` (stereo not drawn), the TGI in the experiment with SR leukemia was over 100 µM; in the experiment with HCT-116 colon, over 100 µM; in the experiment with SNB-75 CNS, 89.8 µM; in the experiment on SF-295 CNS, over 100 µM; with 786-0 renal, over 100 µM; in the experiment on COLO 205 colon, over 100 µM. Moreover, the TGI in the experiment with SW-620 colon is over 100 µM.
For the compound `CCOP(=O)(OCC)/C(=C\n1ccc(=O)[nH]c1=S)C(=O)OC`, the TGI in the experiment with SR leukemia, in the experiment with HCT-116 colon, in the experiment on OVCAR-5 ovarian, with SNB-75 CNS, in the experiment on SF-295 CNS and in the experiment on 786-0 renal was over 100 µM each time. In addition, the TGI in the experiment on COLO 205 colon, in the experiment on PC-3 prostate and in the experiment with SW-620 colon was over 100 µM each time.
On to `Nc1ccc2nc3n(c2c1)C(c1c(F)cccc1F)SC3` (stereo not drawn), for which the TGI in the experiment on SR leukemia, in the experiment with HCT-116 colon, with OVCAR-5 ovarian, with SNB-75 CNS, in the experiment on SF-295 CNS and in the experiment with 786-0 renal was over 100 µM each time. For the same compound, the TGI in the experiment with COLO 205 colon, with PC-3 prostate and in the experiment on SW-620 colon was over 100 µM each time.
As for `CS(=O)(=O)c1ccc(C(=O)O[C@@H]2C(=O)N3CC[C@H]4OC(O)[C@@H]2[C@H]43)cc1` (stereo partly drawn), the TGI in the experiment on SR leukemia, in the experiment on HCT-116 colon, in the experiment with OVCAR-5 ovarian, with SNB-75 CNS, with SF-295 CNS and with 786-0 renal was over 100 µM each time. For the same compound, the TGI with COLO 205 colon, in the experiment on PC-3 prostate and with SW-620 colon was over 100 µM each time.
For `Cc1cn(CC2(CO)CCC2)c(=O)[nH]c1=O`, the TGI with SR leukemia, in the experiment on HCT-116 colon, in the experiment with OVCAR-5 ovarian, in the experiment with SNB-75 CNS, in the experiment on SF-295 CNS and in the experiment with 786-0 renal was over 100 µM each time. Further, the TGI with COLO 205 colon, with PC-3 prostate and in the experiment with SW-620 colon was over 100 µM throughout.
In the case of `CC1=C(O)C(=O)C2C(=O)C1C(C)C2c1ccccc1` (stereo not drawn), the TGI in the experiment on SR leukemia, with OVCAR-5 ovarian, with SNB-75 CNS, in the experiment with SF-295 CNS, with 786-0 renal and with COLO 205 colon was over 100 µM each time. The TGI in the experiment with HOP-92 NSCLC and with SW-620 colon was over 100 µM in each case.
